Data as given in patent US20220323471A1 (priority 2019, published 2022).
pIC50: −log10 of the molar value. Entries after “also recorded” stand apart in the source; their conditions may differ. Like-named read-outs stand apart in the source and are kept apart here.

What was measured:
[1] = test system: HT1080, CHME3, VERO cells; assay: MTT cell viability assay; type: cell-based, human and monkey; conditions: human or monkey cells (HT1080, CHME3, VERO); 48 hours
Experimental: Cell viability was determined by measuring the reduction of the tetrazolium dye MTT [3-(4,5-dimethylthiazol-2-yl)-2,5-diphenyltetrazolium bromide] to its insoluble form formazan. We treated 4×10^3 cells/well in a 96-well plate with serial dilutions of the indicated drugs. Human and monkey cells were incubated with DGP, diphyllin, or 6-deoxy-D-glucose for 48 hours at 37° C. After the incubation period, 10 μl MTT solution (5 mg/mL) was added to each well for an additional 4 hours at 37° C. Finally, the media was removed and dimethyl sulfoxide was added (200 μl/well) according to the manufacturer's instructions. The optical density was measured at 570 nm using a microplate reader. Experiments were performed in triplicates and standard deviations are shown. Mock-treated cells represent 100% viability.

DENV1-RVP = type: cell-based, dengue virus; conditions: VERO cells; DGP 1 μM; NH4Cl 20 mM
Sendai Virus (SeV) = assay: Sendai Virus infection and IFN-β production in CHME3 cells; type: cell-based; conditions: SeV MOI 1 and 10, DGP 1 μM, NH4Cl 20 mM
Experimental: The Flaviviridae family of viruses encode a glycoprotein that is necessary to achieve fusion at the endosomal/lysosomal membranes, the step that releases viral components into the cytoplasm. […] Instead, SeV fuses at the plasma membrane. To this end, IFN-β production and viral infection were measured in CHME3 cells infected with SeV at an MOI 1 and 10 in the presence of DGP (1 μM) or 20 mM NH4Cl.
(§1) To detect viral copies of ZIKV and Sendai Virus (SeV) by qRT-PCR, cells were seeded in 24-well plates, with or without DGP treatment, and infected with the virus at the indicated MOI for 48 h. After the incubation period, total RNA from HT1080, VERO, and CHME3 cells was isolated and purified using Trizol (Invitrogen). For detection of ZIKV viral load in brain and spleen, 3 mice were sacrificed at 6 days post-infection and total RNA was extracted from the brain and spleen. For cDNA synthesis, 1 ng of total RNA was reverse transcribed. The reaction mixture included 1 mM of deoxyribonucleotide phosphates (dNTPs), 2 nM of the specific reverse primer of ZIKV or SeV, 1× M-MULV buffer, 10 U M-MuLV RT (BioLabs), and 2 U of RNase Inhibitor. The reaction mixture was incubated for 1 hour at 42° C. followed by 20 min at 65° C. to inactivate the enzyme. For actin detection, Oligo-dT was used to reverse transcribe total RNA.
ZIKV RNA levels were measured using real-time PCR. HT1080 and VERO cells were challenged by ZIKV MR766 at an MOI of 1 in the presence of DGP. At 48 hours post-challenge, cells were lysed and total RNA was extracted using trizol. Total RNA was used to determine the levels of ZIKV RNA by real-time PCR using specific primers against ZIKA. qRT-PCR was carried out using SYBR green in a 20-μl final volume using a MASTERCYCLER proS machine. The primers used to detect ZIKV were: SEQ ID NO. 1: 5′-TT […]-3′-Forward (Genome Position 941-964) and SEQ ID NO. 2: 5′-[…]-3′-Reverse (Genome position 1123-1103) (AY632535.2). For the detection of SeV, the following primers were used: SEQ ID NO. 3: 5′-[…]-3′-Forward (Genome position 210-233) and SEQ ID NO. 4: 5′-[…]-3′-Reverse (Genome position 332-307) (M30202. Genome position 210-332) (Wagner, A. M. et al. 2003, “Detection of sendai virus and pneumonia virus of mice by use of fluorogenic nuclease reverse transcriptase polymerase chain reaction analysis.” Comp Med 53(2): 173-177). For the detection of IFN-β the following primers were used: SEQ ID NO. 5: Forward 5-[…]-3′ (Genome position 644-668) and SEQ ID Na 6: Reverse 5′-[…]-3′ (Genome position 718-697) (NM_002176.2) and for actin detection: SEQ ID NO. 7: 5′-[…]-′3-Forward and SEQ ID NO. 8: 5′-[…]′3-Reverse. ZIKA viral RNA levels were normalized to actin (upper panels). […]

ZIKV = ZIKV viral load in brain and spleen of challenged mice (qRT-PCR); type: in vivo, mouse; conditions: 1 mg/kg; six days post-challenge
Experimental: The effect of DGP on viral replication in the brain and spleen was investigated in ZIKV-challenged mice (FIG. 13). To this end, viral loads were determined by qRT-PCR using specific primers against the ZIKV genome six days post-challenge.
as §1

SARS-CoV-2-GFP = type: cell-based
ZIKV strain MR766 = ZIKV strain MR766 infection, 4G2 antibody flow cytometry; conditions: for pIC50: Zika virus

COc1cc2c(OC3OC(C)C(O)C(O)C3O)c3c(c(-c4ccc5c(c4)OCO5)c2cc1OC)C(=O)OC3 (stereo not drawn) [DGP, 6-deoxyglucose-diphyllin]
toxicity at concentrations required to inhibit ZIKV infection (MTT) [1]: non-toxic; also recorded: not toxic | DENV1 RVP infection (DENV1-RVP): almost undetectable | IFN-β production in SeV-infected cells (Sendai Virus (SeV)): did not inhibit; also recorded: increased induction | SeV infection / viral replication (Sendai Virus (SeV)): does not inhibit; also recorded: increased viral replication | viral replication in the brain (ZIKV): completely inhibited | viral replication in the spleen (ZIKV): low levels of viral replication were detected | concentration sufficient to potently block the entry of SARS-CoV-2-GFP (SARS-CoV-2-GFP): 0.25 µM | percentage of 4G2-positive cells (ZIKV strain MR766; CHME3 cells, MOI 1, DGP 0.1 and 1 μM, NH4Cl 20 mM, 48 hours): substantial decrease | potency of DGP relative to diphyllin (ZIKV strain MR766; HT1080 and CHME3 cells): 3-5 fold | concentration giving substantial inhibition of ZIKV infection (ZIKV strain MR766; VERO, HT1080, CHME3 cells, MOI 1, 48 hours): 0.25 to 0.50 µM | pIC50 (ZIKV strain MR766; HT-1080, read-out: IC50, ZIKV infection): 7.70 | pIC50 (ZIKV strain MR766; read-out: IC50, ZIKV infection): 7.40
